Results from US12427179B2, “Compositions and methods for diagnosis and treatment of neurodegenerative diseases” (EPITRACKER, INC., priority 2019, dated 2025).

Tests used:
Assay type in all cases: cell-based, human
Details in all cases: at the compound's active concentration
[1] = tested on: 3C system (Th1 vascular biology); assay: BioMAP 3C system
Description: The Diversity PLUS panel allows test agent characterization in an unbiased way across a broad set of systems modeling various human disease states. These systems are designed to model complex human tissue and disease biology of the vasculature, skin, lung, and inflammatory tissues. […] BioMAP systems are constructed with one or more primary cell types from healthy human donors, with stimuli (such as cytokines or growth factors) added to capture relevant signaling networks that naturally occur in human tissue or pathological conditions. […] Each test agent generates a signature BioMAP profile that is created from the changes in protein biomarker readouts within individual system environments. Biomarker readouts (7-17 per system) are selected for therapeutic and biological relevance, are predictive for disease outcomes or specific drug effects and are validated using agents with known mechanism of action (MoA). Each readout is measured quantitatively by immune-based methods that detect protein (e.g., ELISA) or functional assays that measure proliferation and viability. BioMAP readouts are diverse and include cell surface receptors, cytokines, chemokines, matrix molecules and enzymes. In total, the Diversity PLUS panel contains 148 biomarker readouts that capture biological changes that occur within the physiological context of the particular BioMAP system. […]

[2] = tested on: BE3C: Bronchial epithelial cells (IL-1β, IFNγ, TNFα); assay: BioMAP BE3C system
Description: The Diversity PLUS panel allows test agent characterization in an unbiased way across a broad set of systems modeling various human disease states. These systems are designed to model complex human tissue and disease biology of the vasculature, skin, lung, and inflammatory tissues.
(§1) BioMAP systems are constructed with one or more primary cell types from healthy human donors, with stimuli (such as cytokines or growth factors) added to capture relevant signaling networks that naturally occur in human tissue or pathological conditions. Vascular biology is modeled in both a Th1 (3C system) and a Th2 (4H system) inflammatory environment, as well as in a Th1 inflammatory state specific to arterial smooth muscle cells (CASM3C system). Additional systems recapitulate aspects of the systemic immune response including monocyte-driven Th1 inflammation (LPS system) or T cell stimulation (SAg system), chronic Th1 inflammation driven by macrophage activation (lMphg system) and the T cell-dependent activation of B cells that occurs in germinal centers (BT system). The BE3C system (Th1) and the BF4T system (Th2) represent airway inflammation of the lung, while the MyoF system models myofibroblast-lung tissue remodeling. Lastly, skin biology is addressed in the KF3CT system modeling Th1 cutaneous inflammation and the HDF3CGF system modeling wound healing.
(§2) Each test agent generates a signature BioMAP profile that is created from the changes in protein biomarker readouts within individual system environments. Biomarker readouts (7-17 per system) are selected for therapeutic and biological relevance, are predictive for disease outcomes or specific drug effects and are validated using agents with known mechanism of action (MoA). Each readout is measured quantitatively by immune-based methods that detect protein (e.g., ELISA) or functional assays that measure proliferation and viability. BioMAP readouts are diverse and include cell surface receptors, cytokines, chemokines, matrix molecules and enzymes.
(§3) Activated BioMAP systems were incubated with each compound for 24 to 72 hours. Protein-based biomarkers from activated cell systems were measured and compared with non-treated control systems.

[3] = tested on: /Mphg: Macrophages, venular endothelial cells (TLR2 ligand); assay: BioMAP /Mphg system
Description: The Diversity PLUS panel allows test agent characterization in an unbiased way across a broad set of systems modeling various human disease states. These systems are designed to model complex human tissue and disease biology of the vasculature, skin, lung, and inflammatory tissues. Quantitative measurements of 148 biomarker activities across this broad panel, along with comparative analysis of biological activities from known bioactive agents, were used to predict and compare the efficacy and function of each selected compound at selected concentrations (6.7 and/or 20 μM).
as §1
as §2, with “enzymes. In total, the Diversity PLUS panel contains 148 biomarker readouts that capture biological changes that occur within the physiological context of the particular BioMAP system. […]” for “enzymes.”
as §3

SMILES: O=C(O)CNC(=O)c1ccccc1 [hippurate]
- Tissue factor, log10 reduction vs nontreated controls [1]: −0.10 log10
- MMP-1, log10 reduction vs nontreated controls [2]: −0.14 log10
- IL-8, log10 reduction vs nontreated controls [3]: −0.12 log10
